From patent US5945440A, “Indolocarbazole imides and the use thereof” (priority 1992, dated 1999)
pIC50: −log10 of the molar value. Like-named read-outs stand apart in the source and are kept apart here.

How the values were obtained:
[1] = molecular target: T1, MLC kinase (myosin light-chain kinase) (Gallus gallus, UniProt P11799); assay: inhibition of MLC kinase, in vitro enzyme test (32P phosphate incorporation); format: biochemical, chicken (stomach); details: for ratio of IC50 C-kinase/IC50 MLC-kinase: selectivity factor calculated from the IC50 values; for MLC kinase inhibition, in words: potency and selectivity vs protein kinase C
T1 construct: MLC kinase was purified from chicken stomach; from tissue; host or cells: chicken stomach (gizzard smooth muscle)
T1 sequence (P11799 935-1906): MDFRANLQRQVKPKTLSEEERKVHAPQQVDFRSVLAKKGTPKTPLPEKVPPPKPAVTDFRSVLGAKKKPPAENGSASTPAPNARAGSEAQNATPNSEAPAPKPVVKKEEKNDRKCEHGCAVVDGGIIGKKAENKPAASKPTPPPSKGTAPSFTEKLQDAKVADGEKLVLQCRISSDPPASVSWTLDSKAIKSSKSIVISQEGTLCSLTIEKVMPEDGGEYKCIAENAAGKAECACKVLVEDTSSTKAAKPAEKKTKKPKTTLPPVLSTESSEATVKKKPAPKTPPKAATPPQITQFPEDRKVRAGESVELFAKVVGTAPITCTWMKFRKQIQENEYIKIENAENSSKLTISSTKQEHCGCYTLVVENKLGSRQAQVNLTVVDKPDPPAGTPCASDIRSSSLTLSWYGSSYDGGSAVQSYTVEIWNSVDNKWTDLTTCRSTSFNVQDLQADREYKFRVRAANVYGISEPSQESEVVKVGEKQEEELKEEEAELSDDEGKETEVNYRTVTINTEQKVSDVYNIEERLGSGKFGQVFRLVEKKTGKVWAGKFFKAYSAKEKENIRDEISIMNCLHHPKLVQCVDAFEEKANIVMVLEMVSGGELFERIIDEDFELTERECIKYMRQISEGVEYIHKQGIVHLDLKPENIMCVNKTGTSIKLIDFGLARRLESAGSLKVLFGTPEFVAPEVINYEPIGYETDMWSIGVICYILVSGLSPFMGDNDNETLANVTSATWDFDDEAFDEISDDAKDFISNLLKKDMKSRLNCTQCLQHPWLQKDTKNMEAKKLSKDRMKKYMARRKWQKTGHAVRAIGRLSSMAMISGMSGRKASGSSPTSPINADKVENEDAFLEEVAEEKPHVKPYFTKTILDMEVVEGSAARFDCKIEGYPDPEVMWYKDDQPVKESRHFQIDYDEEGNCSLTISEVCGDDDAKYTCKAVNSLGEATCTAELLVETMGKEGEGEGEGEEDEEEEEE

[2] = molecular target: protein kinase C; assay: inhibition of protein kinase C, enzyme test; format: biochemical; details: read-out: inhibition of the protein kinases, C-kinase IC50
Experimental: In order to ascertain whether it is a question of a selective inhibition of MLC kinase, the compounds were also investigated in other enzyme tests for protein kinase, including tests for protein kinase C. The results from the PKC test are also given in the following Table I. Furthermore, the Table contains selectivity factors which were calculated by the determination of the ratios of the IC50 values.

[3] = 1 nM MLC kinase, 250 μM ATP, pH 7.2, 20 minutes at 30° C., read-out: inhibition of the protein kinases, MLC-kinase IC50

Row | SMILES | pIC50 [1, 3] | ratio of IC50 C-kinase/IC50 MLC-kinase [1] | pIC50 [2] | MLC kinase inhibition, in words [1] | pIC50 [1]
1 | O=C1NC(=O)c2c1c1c3cc(O)ccc3[nH]c1c1[nH]c3ccc(O)cc3c21 [Example 2e, 6,7,12,13-tetrahydro-3,9-dihydroxy-5,1-dioxo-5H-indolo[2,3-a]pyrrolo[3,4-c]carbazole] | 8.24 | 1.3 | 8.15 | – | –
2 | Cn1c2ccc(O)cc2c2c3c(c4c5cc(O)ccc5n(CCC#N)c4c21)C(=O)NC3=O [Example 2f, 12-(2-cyanoethyl)-6,7,12,13-tetrahydro-3,9-dihydroxy-13-methyl-5,7-dioxo-5H-indolo[2,3-a]pyrrolo-[3,4-c]carbazole] | 8.00 | 0.4 | 8.38 | – | –
3 | CN(C)CCCn1c2ccc(O)cc2c2c3c(c4c5ccccc5n(C)c4c21)C(=O)NC3=O [Example 2g, 13-(3-dimethylaminopropyl)-6,7,12,13-tetrahydro-3-hydroxy-12-methyl-5,7-dioxo-5H-indolo[2,3-a]pyrrolo-25 [3,4-c]carbazole] | 8.30 | 8 | 7.40 | – | –
4 | Cn1c2ccccc2c2c3c(c4c5ccccc5n(CCC[N+](C)(C)C)c4c21)C(=O)NC3=O [Example 3, 12-(3-Dimethylaminopropyl)-6,7,12,13-tetrahydro-13-methyl-5,7-dioxo-5H-indolo[2,3-a]pyrrolo[3,4-c]-carbazole; methiodide] | 7.12 | 2.5 | 6.72 | – | –
5 | Cn1c2ccccc2c2c3c(c4c5ccccc5n(CCCN)c4c21)C(=O)NC3=O [Example 4, 12-(3-Aminopropyl)-6,7,12,13-tetrahydro-13-methyl-5,7-dioxo-5H-indolo[2,3-a]pyrrolo[3,4-c]carbazole] | 8.92 | 33 | 7.41 | potent and selective inhibitors of MLC kinase | –
6 | COc1ccc2c(c1)c1c3c(c4c5ccccc5n(C)c4c1n2CCCN)C(=O)NC3=O [Example 4a, 13-(3-aminopropyl)-6,7,12,13-tetrahydro-3-methoxy-12-methyl-5,7-dioxo-5H-indolo[2,3-a]pyrrolo[3,4-c]-carbazole] | 8.31 | 74 | 6.44 | potent and selective inhibitors of MLC kinase | –
7 | COc1ccc2c(c1)c1c3c(c4c5cc(Cl)ccc5n(CCCN)c4c1n2C)C(=O)NC3=O [Example 4b, 13-(3-aminopropyl)-3-chloro-6,7,12,13-tetrahydro-9-methoxy-12-methyl-5,7-dioxo-5H-indolo[2,3-a]pyrrolo-[3,4-c]carbazole] | 8.82 | 23 | 7.47 | potent and selective inhibitors of MLC kinase | –
8 | CC(C)NCCCn1c2ccccc2c2c3c(c4c5ccccc5n(C)c4c21)C(=O)NC3=O [Example 4c, 13-(3-isopropylaminopropyl)-6,7,12,13-tetrahydro-13-methyl-5,7-dioxo-5H-indolo[2,3-a]pyrrolo[3,4-c]-carbazole] | 7.68 | 2.5 | 7.28 | – | –
9 | COc1ccc2[nH]c3c(c4c(c5c6cc(OC)ccc6n(CCCN(C)C)c35)C(=O)NC4=O)c2c1 [Example 7, 12-(3-Dimethylaminopropyl)-6,7,12,13-tetrahydro-3,9-dimethoxy-5,7-dioxo-5H-indolo[2,3-a]pyrrolo[3,4-c]-carbazole] | 7.40 | 9.5 | 6.42 | – | –
10 | O=C1NC(=O)c2c1c1c3ccccc3[nH]c1c1c2c2ccccc2n1CC(O)CO (centres unmarked) [Example 8, 12-(2,3-Dihydroxy-1-propyl)-6,7,12,13-tetrahydro-5,7-dioxo-5H-indolo[2,3-a]pyrrolo[3,4-c]carbazole] | 8.28 | 11.3 | 7.23 | – | –
11 | O=C1NC(=O)c2c1c1c3ccccc3[nH]c1c1[nH]c3ccccc3c21 [Example 11a, 6,7,12,13-tetrahydro-5,7-dioxo-5H-indolo[2,3-a]pyrrolo[3,4-c]carbazole] | – | 4.5 | 5.72 | – | 6.38

Now from value to molecule, other results behind:

Row | pIC50 [1, 3] | ratio of IC50 C-kinase/IC50 MLC-kinase [1] | pIC50 [2] | SMILES | MLC kinase inhibition, in words [1] | pIC50 [1]
12 | 7.28 | 10 | 6.28 | CN(C)CCCn1c2ccccc2c2c3c(c4c5ccccc5[nH]c4c21)C(=O)NC3=O [Example 7a, 13-(3-dimethylaminopropyl)-6,7,12,13-tetrahydro-5,7-dioxo-5H-indolo[2,3-a]pyrrolo[3,4-c]carbazole] | – | –
13 | 8.06 | > 1149 | < 5.00 | COc1ccc2[nH]c3c(c4c(c5c6cc(OC)ccc6n(C)c35)C(=O)NC4=O)c2c1 [Example 7b, 6,7,12,13-tetrahydro-3,9-dimethoxy-12-methyl-5,7-dioxo-5H-indolo[2,3-a]pyrrolo[3,4-c]carbazole] | potent and selective inhibitors of MLC kinase | –
14 | 8.08 | 3.0 | 7.60 | COc1ccc2[nH]c3c(c4c(c5c6ccccc6n(C)c35)C(=O)NC4=O)c2c1 [Example 7d, 6,7,12,13-tetrahydro-3-methoxy-12-methyl-5,7-dioxo-5H-indolo[2,3-a]pyrrolo[3,4-c]carbazole] | – | –
15 | 7.22 | 4.7 | 6.55 | COc1ccc2[nH]c3c4[nH]c5ccccc5c4c4c(c3c2c1)C(=O)NC4=O [Example 11b, 6,7,12,13-tetrahydro-3-methoxy-5,7-dioxo-5H-indolo[2,3-a]pyrrolo[3,4-c]carbazole] | – | –
16 | 7.07 | 47 | 5.40 | O=C1NC(=O)c2c1c1c3ccccc3[nH]c1c1[nH]c3cc(Cl)ccc3c21 [Example 11c, 2-chloro-6,7,12,13-tetrahydro-5,7-dioxo-5H-indolo[2,3-a]pyrrolo[3,4-c]carbazole] | potent and selective inhibitors of MLC kinase | –
17 | 6.22 | > 17 | < 5.00 | Cc1ccc2[nH]c3c4[nH]c5ccc(C)cc5c4c4c(c3c2c1)C(=O)NC4=O [Example 11e, 6,7,12,13-tetrahydro-3,9-dimethyl-5,7-dioxo-5H-indolo[2,3-a]pyrrolo[3,4-c]carbazole] | – | –
18 | 6.43 | 12 | 5.34 | O=C1NC(=O)c2c1c1c3cc(Br)ccc3[nH]c1c1[nH]c3ccc(Br)cc3c21 [Example 11g, 3,9-dibromo-6,7,12,13-tetrahydro-5,7-dioxo-5H-indolo[2,3-a]pyrrolo[3,4-c]carbazole] | – | –
